Tests used:
Assay type in all cases: biochemical
[1] = target: T1, α,α-Trehalase (porcine kidney) (Sus scrofa, UniProt I3LIR5); test: Glycosidase inhibition: α,α-trehalase (porcine kidney); settings: read-out: inhibition % at 1000 μM
T1 construct: purchased Sigma-Aldrich Co; host or cells: porcine kidney
T1 sequence (I3LIR5 24-583): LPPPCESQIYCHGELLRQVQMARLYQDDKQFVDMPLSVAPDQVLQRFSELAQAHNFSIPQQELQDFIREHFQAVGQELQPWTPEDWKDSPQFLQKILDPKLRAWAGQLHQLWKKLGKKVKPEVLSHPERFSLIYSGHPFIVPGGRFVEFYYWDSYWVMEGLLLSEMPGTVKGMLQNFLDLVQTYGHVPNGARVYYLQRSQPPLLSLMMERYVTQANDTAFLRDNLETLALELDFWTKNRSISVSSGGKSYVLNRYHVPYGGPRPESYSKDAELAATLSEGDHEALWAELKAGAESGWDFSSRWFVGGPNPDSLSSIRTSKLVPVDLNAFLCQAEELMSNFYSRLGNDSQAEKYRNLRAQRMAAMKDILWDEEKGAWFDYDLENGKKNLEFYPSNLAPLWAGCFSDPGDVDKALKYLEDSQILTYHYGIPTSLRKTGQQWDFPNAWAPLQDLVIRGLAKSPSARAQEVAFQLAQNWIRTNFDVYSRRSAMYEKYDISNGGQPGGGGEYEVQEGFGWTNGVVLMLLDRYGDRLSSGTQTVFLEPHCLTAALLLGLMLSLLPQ
Excerpt: (§1) The enzymes α-glucosidase (from yeast, rice), β-glucosidase (from almonds, bovine liver), α-galactosidase (from coffee beans), β-galactosidase (from bovine liver), α-mannosidase (from jack beans), β-mannosidase (from snails), α-L-fucosidase (from bovine kidney), α-L-rhamnosidase (from Penicillium decumbens), β-glucuronidases (from Escherichia coli), α,α-trehalase (from porcine kidney), amyloglucosidase (from Aspergillus niger), p-nitrophenyl glycosides, and various disaccharides were purchased from Sigma-Aldrich Co. Brush border membranes were prepared from the rat small intestine according to the method of Kessler et al., and were assayed at pH 6.8 for rat intestinal maltase using maltose. For rat intestinal glucosidases and porcine kidney trehalase activities, the reaction mixture (0.2 mL) contained 25 mM substrate and the appropriate amount of enzyme, and the incubations were performed for 10 min at 37 °C. The reaction was stopped by heating at 100 °C for 3 min. […] The absorbance at 505 nm was measured to determine the amount of the released D-glucose. Other glycosidase activities were determined using an appropriate p-nitrophenyl glycoside as substrate at the optimum pH of each enzyme. […] The released p-nitrophenol was measured spectrometrically at 400 nm.

β-Glucronidase (E.coli) = target: T2, β-Glucronidase (E.coli) (Escherichia coli, UniProt P05804); test: Glycosidase inhibition: β-glucuronidase (E. coli); settings: β-glucuronidase, E. coli; 1000 μM
T2 construct: purchased Sigma-Aldrich Co
Excerpt: (§2) The enzymes α-glucosidase (from yeast, rice), β-glucosidase (from almonds, bovine liver), α-galactosidase (from coffee beans), β-galactosidase (from bovine liver), α-mannosidase (from jack beans), β-mannosidase (from snails), α-L-fucosidase (from bovine kidney), α-L-rhamnosidase (from Penicillium decumbens), β-glucuronidases (from Escherichia coli), α,α-trehalase (from porcine kidney), amyloglucosidase (from Aspergillus niger), p-nitrophenyl glycosides, and various disaccharides were purchased from Sigma-Aldrich Co. Brush border membranes were prepared from the rat small intestine according to the method of Kessler et al., and were assayed at pH 6.8 for rat intestinal maltase using maltose. For rat intestinal glucosidases and porcine kidney trehalase activities, the reaction mixture (0.2 mL) contained 25 mM substrate and the appropriate amount of enzyme, and the incubations were performed for 10 min at 37 °C. The reaction was stopped by heating at 100 °C for 3 min. After centrifugation (600 g; 10 min), 0.035 mL of the resulting reaction mixture were added to 2.1 mL of the Glucose CII-test Wako (Wako Pure Chemical Ind., Osaka, Japan). The absorbance at 505 nm was measured to determine the amount of the released D-glucose. Other glycosidase activities were determined using an appropriate p-nitrophenyl glycoside as substrate at the optimum pH of each enzyme. The reaction mixture (0.2 mL) contained 2 mM of the substrate and the appropriate amount of enzyme. The reaction was stopped by adding 0.4 mL of 400 mM Na2CO3. The released p-nitrophenol was measured spectrometrically at 400 nm.

α-L-Rhamnosidase = α-L-Rhamnosidase (Penicillium decumbens, UniProt S7ZS15); test: Glycosidase inhibition: α-L-rhamnosidase (Penicillium decumbens)
Excerpt: as §1

[2] = target: T3, α-L-Fucosidase (bovine kidney) (Bos taurus, UniProt Q2KIM0); test: Glycosidase inhibition: α-L-fucosidase (bovine kidney); settings: read-out: inhibition % at 1000 μM
T3 construct: purchased Sigma-Aldrich Co; host or cells: bovine kidney
T3 sequence (Q2KIM0 23-468): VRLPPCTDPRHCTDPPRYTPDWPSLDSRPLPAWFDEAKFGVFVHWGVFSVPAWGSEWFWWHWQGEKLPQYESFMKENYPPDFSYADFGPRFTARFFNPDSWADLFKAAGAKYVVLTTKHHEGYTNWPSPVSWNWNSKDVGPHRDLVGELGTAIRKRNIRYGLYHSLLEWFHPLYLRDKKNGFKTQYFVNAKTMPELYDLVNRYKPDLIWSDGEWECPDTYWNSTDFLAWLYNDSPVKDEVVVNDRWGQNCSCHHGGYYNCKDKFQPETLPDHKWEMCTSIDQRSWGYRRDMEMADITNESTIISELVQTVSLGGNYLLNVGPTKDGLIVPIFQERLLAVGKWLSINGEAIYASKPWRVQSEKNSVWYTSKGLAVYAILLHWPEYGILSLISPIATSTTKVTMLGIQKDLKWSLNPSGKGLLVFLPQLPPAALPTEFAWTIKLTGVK
Excerpt: as §2

[3] = target: T4, α-Galactosidase (coffee beans) (Coffea arabica, UniProt Q42656); test: Glycosidase inhibition: α-galactosidase (coffee beans); settings: read-out: inhibition % at 1000 μM
T4 construct: purchased Sigma-Aldrich Co
Excerpt: as §2

α-Glucosidase (rice) = target: T5, α-Glucosidase (rice) (Oryza sativa subsp. japonica, UniProt Q653V7); test: Glycosidase inhibition: α-glucosidase (rice); settings: read-out: inhibition % at 1000 μM
T5 construct: purchased Sigma-Aldrich Co
Excerpt: as §2

[4] = target: T6, β-Galactosidase (bovine liver) (Bos taurus, UniProt Q58D55); test: Glycosidase inhibition: β-galactosidase (bovine liver)
T6 sequence (Q58D55 28-653): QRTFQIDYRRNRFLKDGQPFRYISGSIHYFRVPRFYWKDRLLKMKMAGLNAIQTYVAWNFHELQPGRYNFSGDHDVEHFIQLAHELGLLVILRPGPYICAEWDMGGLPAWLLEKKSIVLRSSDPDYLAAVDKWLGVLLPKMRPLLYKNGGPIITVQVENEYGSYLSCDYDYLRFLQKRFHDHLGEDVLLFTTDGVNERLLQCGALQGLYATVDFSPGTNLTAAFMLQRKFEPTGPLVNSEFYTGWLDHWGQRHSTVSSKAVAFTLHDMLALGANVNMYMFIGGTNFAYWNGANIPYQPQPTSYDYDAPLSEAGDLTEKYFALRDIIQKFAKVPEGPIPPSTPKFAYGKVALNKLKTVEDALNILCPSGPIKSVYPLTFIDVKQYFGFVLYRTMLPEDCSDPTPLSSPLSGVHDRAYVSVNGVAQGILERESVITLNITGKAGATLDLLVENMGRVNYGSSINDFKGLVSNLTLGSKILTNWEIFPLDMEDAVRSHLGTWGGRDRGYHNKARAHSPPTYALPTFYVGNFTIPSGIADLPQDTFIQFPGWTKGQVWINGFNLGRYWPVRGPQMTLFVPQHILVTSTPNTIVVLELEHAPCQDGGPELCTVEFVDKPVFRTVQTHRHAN
Excerpt: as §1

T5 sequence (Q653V7 34-885): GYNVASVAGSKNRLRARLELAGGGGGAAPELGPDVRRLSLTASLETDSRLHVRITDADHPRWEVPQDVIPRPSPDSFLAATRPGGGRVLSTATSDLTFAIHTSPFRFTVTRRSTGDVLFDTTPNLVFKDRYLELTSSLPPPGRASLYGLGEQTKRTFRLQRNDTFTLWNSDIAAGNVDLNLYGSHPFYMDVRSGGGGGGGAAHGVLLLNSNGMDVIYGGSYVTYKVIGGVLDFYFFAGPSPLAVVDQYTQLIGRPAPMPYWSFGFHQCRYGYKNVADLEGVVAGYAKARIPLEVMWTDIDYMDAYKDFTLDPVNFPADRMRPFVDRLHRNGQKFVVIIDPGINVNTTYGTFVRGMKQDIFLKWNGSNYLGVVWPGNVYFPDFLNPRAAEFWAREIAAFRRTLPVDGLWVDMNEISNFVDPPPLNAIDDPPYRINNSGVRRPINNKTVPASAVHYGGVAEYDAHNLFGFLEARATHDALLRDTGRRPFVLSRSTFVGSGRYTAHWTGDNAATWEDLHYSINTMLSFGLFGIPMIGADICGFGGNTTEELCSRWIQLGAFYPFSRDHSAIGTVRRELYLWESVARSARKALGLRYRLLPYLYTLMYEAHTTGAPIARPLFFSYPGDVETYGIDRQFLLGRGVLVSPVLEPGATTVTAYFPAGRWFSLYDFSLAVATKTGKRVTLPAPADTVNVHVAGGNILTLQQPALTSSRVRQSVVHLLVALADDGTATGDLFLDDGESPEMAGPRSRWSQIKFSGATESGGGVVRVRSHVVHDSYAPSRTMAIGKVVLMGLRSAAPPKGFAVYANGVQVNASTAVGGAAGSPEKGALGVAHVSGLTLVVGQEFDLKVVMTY
Sequence of α-L-Rhamnosidase (S7ZS15 entry or part of it): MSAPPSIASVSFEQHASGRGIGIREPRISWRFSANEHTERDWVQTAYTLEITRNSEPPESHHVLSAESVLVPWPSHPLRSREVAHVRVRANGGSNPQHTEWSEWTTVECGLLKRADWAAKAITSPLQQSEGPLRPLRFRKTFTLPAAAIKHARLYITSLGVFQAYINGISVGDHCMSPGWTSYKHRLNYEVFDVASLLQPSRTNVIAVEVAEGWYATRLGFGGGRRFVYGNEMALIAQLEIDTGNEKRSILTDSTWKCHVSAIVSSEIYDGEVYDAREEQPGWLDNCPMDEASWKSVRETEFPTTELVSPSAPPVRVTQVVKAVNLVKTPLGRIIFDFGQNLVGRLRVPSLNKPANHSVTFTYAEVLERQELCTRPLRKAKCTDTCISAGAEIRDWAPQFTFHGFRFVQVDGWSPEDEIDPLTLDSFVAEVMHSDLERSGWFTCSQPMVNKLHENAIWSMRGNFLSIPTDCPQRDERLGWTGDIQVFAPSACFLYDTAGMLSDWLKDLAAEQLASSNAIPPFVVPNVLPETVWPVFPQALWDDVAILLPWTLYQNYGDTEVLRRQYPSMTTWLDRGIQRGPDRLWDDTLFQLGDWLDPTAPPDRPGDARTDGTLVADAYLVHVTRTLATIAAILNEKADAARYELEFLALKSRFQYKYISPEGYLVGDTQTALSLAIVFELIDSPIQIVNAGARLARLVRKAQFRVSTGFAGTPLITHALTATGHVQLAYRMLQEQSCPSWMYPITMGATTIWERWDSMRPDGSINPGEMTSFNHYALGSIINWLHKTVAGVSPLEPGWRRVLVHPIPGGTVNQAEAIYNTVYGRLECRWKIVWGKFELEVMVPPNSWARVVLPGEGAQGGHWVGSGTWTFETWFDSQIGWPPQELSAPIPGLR
T2 sequence (P05804 whole entry): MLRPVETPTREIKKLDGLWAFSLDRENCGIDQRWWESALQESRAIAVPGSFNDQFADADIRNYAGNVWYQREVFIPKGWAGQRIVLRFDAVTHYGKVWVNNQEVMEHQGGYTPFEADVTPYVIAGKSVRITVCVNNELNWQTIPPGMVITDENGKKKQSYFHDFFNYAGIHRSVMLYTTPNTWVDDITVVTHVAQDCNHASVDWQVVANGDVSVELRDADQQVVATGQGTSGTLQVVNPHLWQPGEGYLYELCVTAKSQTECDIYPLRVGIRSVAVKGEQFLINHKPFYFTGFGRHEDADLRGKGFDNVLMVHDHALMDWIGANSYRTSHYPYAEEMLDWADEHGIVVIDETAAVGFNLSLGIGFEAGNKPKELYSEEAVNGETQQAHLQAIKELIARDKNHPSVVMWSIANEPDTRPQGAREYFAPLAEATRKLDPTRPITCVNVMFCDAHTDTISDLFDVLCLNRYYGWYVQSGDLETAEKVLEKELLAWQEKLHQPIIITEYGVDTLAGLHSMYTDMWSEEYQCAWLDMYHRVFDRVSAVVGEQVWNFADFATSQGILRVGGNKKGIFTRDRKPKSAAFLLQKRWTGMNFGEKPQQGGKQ
T4 sequence (Q42656 16-378): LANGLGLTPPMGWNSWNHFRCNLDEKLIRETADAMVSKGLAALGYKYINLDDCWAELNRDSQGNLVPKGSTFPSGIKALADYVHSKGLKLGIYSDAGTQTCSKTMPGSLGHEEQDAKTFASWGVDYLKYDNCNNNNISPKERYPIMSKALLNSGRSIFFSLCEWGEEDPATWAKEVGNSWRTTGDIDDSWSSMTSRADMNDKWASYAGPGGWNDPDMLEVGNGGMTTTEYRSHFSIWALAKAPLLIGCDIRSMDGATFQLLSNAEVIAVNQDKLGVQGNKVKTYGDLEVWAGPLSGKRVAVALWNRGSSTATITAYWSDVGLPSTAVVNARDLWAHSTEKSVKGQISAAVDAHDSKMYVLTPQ

Row | SMILES | inhibition at 1000 µM [1] | inhibition at 1000 µM (β-Glucronidase (E.coli)) | inhibition at 1000 µM (α-L-Rhamnosidase) | inhibition at 1000 µM [2] | inhibition at 1000 µM [3] | inhibition at 1000 µM (α-Glucosidase (rice)) | inhibition at 1000 µM [4]
1 | CC[C@@H]1CN[C@H]2C[C@@H](O)[C@H](O)[C@@H](O)[C@H]12 [Compound 10, (3S,3aR,4S,5S,6R,7aS)-3-Ethyloctahydro-1H-indole-4,5,6-triol] | 0% | 18.1% | 0% | 7.5% | 15.9% | 0% | < 50%
2 | CC[C@H]1CN[C@H]2C[C@@H](O)[C@H](O)[C@@H](O)[C@H]12 [Compound 13, (3R,3aR,4S,5S,6R,7aS)-3-ethyloctahydro-1H-indole-4,5,6-triol] | 0% | 12.3% | 0% | 12.9% | 0% | 0% | < 50%

— PMC6631223, “Chain-Branched Polyhydroxylated Octahydro-1H-Indoles as Potential Leads against Lysosomal Storage Diseases” (Pharmaceuticals, 2019)
